# Assay results taken from patent US10471076B2, “Compositions and methods to treat vision disorders” (YouHealth Biotech, Limited, priority 2014, dated 2019).
# Where “and” joins values, the source holds several entries; their conditions need not be identical. Identical values can stand only once. Entries after “also recorded” stand apart in the source; their conditions may differ.
# What was measured:
# [1] = system: naturally occurring cataractous lenses from rabbits; assay: Treatment of isolated cataractous rabbit lenses; design: key to cataract grade before treatment / cataract grade after treatment: Grade 0: absence of opacification (gridlines clearly visible); Grade 1: a slight degree of opacification (minimal clouding of gridlines, with gridlines still visible); Grade 2: presence of diffuse opacification involving almost the entire lens (moderate clouding of gridlines, with main gridlines visible); Grade 3: presence of extensive, thick opacification involving the entire lens (total clouding of gridlines, with gridlines not seen at all)
# Text: FIG. 12A, FIG. 12B, and FIG. 12C show grading system of cataractous lenses. […] The degree of transparency was scored as 0, a clear lens and absence of opacification (gridlines clearly visible, a′); 1, a blurry lens and a slight degree of opacification (minimal clouding of gridlines, with gridlines still visible, b′); 2, a cloudy lens and presence of diffuse opacification involving almost the entire lens (moderate clouding of gridlines, with main gridlines visible, c′); or 3, an opaque lens and presence of extensive thick opacification involving the entire lens (total clouding of gridlines, with gridlines not seen at all, d′). […] Rabbit lenses (n=13) were dissected and incubated with lanosterol for 6 days and subsequently assessed for lens clarity and transparency. Pairs of photographs of each cataractous rabbit lens showing before and after treatment with scores underneath are shown. […] Dog eyes with cataracts (n=7) were treated with lanosterol for 6 weeks and assessed for lens clarity and transparency. A pair of photographs of each study eye before and after treatment is shown with scores underneath. Three control eyes treated with vehicles alone are also presented.
# Treatment of cataractous rabbit lenses. Rabbits were euthanized by CO2 inhalation and lenses were immediately dissected and treated with vehicle or lanosterol dissolved in vehicle to make 25 mM solutions. Lens tissues were incubated in these solutions for 6 days in the dark at room temperature. Cataracts were examined under a microscope and photographed. Degree of cataract was assessed by a blinded examiner using a previously described opacification grading system, shown below^32,33. Improvements in lens clarity and transparency were quantified by visual inspection and grading. Lens clarity was scored by transmission of light, clarity of a grid image underneath the lens (FIG. 12A, FIG. 12B, FIG. 12C), and improvement in overall clarity of a lens or improvement in clarity of localized areas of cortical cataract. Wilcoxon test was used to evaluate the treatment effect.
# Cataract grading system. […]
# [2] = target: T1, αA-crystallin (Y118D) aggregates (Homo sapiens, UniProt P02489, Y118D); assay: Serial live-cell imaging, single-particle tracking of aggregates; assay type: cell-based; conditions: human lens progenitor cells; 40 mM sterol in 1% DMSO for 4 h
# T1 construct: expressed in transfected cells; host or cells: human lens progenitor cells, G418-selected
# T1 sequence (P02489 1-173 Y118D): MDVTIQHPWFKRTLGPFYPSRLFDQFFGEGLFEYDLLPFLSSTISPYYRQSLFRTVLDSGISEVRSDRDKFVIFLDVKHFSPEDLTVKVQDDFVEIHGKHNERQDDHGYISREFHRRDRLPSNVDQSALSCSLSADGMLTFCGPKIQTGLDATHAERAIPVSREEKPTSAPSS
# Procedure: Live-cell imaging. Human lens progenitor cells were transfected with plasmids containing αA-crystallin (Y118D) mutant. After a 24 h transfection period, the cells with stable expression of αA-crystallin (Y118D) mutant were screen by incubation in culture medium containing 0.8 mg ml^−1 G418 for 7 days. Then the obtained cells were seeded onto glass bottom cell culture dishes (In Vitro Scientific) and treated with 1% DMSO, 40 mM cholesterol in 1% DMSO or 40 mM lanosterol in 1% DMSO for 4 h. Fresh culture medium was added, and the cells were analysed by serial live-cell imaging. Live-cell images were viewed with an Olympus IX81 microscope and captured with CellSens Dimension soft-ware (Olympus). Quantitative analysis of the size of aggregates was performed by measuring the fluorescence intensity of p62-positive aggregates using single-par-tide tracking in live-cell imaging. The live-cell imaging was conducted using three biological replicates with 1-8 repetitions each.
# [3] = system: cataract-causing mutant crystallin proteins; assay: Intracellular aggregation of mutant crystallins in transfected human lens progenitor cells; assay type: cell-based
# Procedure: To assess the effect of lanosterol on crystallin aggregation, human lens progenitor cells were co-transfected with LSS and various crystallin constructs for 4 h. Cells co-transfected with crystallin mutants and pcDNA3.1-N-Flag were used as a control. Human lens progenitor cells co-transfected with LSS and crystallin mutant constructs were cultured for 12 h before assaying for aggregates. The rescue experiments were performed after 16 h by addition of 40 mM sterols (lanosterol or cholesterol, Sigma-Aldrich) to the cell culture medium for 2 h, which was then replaced with fresh culture medium and cells cultured for 24 h. The percentage of cells with crystallin aggregates was calculated from ten randomly selected viewing fields. The values of the wild-type LSS group, mutant group, and mutant plus lanosterol group were calculated. Cells treated with 1% DMSO were used as the controls.
# The impact of LSS and lanosterol on intracellular crystallin aggregation were evaluated in single-blinded observer studies. Experiments have been repeated at least three times. P values were calculated using Student's t-tests. Fluorescence microscopy. Equal amounts of the human lens progenitor cells, HLEB-3 cells or HeLa cells were seeded on glass coverslips pretreated with TC (Solarbio). After culturing for 24 h to reach 90% confluency, the cells were transfected with plasmids containing various LSS or crystallin genes or co-transfected with plasmids containing a certain crystallin gene and those containing the wild-type or mutated LSS gene. The controls were cells transfected with the plasmids containing peGFP-N1 and/or peDNA3.1-N-Flag. Both transfection and co-transfection were performed using Lipofectamine 3000 (Invitrogen) according to the instructions from the manufacturer.
# The effect of lanosterol or cholesterol on the aggresome formation of various crystallins was studied by transfecting the cells with plasmids containing various crystallin genes. The cells were incubated for 24 h to enable efficient protein expression and aggresome formation. The cells were then treated with 0-40 mM sterols in 1% (for human lens progenitor cells) or 2% DMSO (for HeLa cells). Cells treated with 1% or 2% DMSO were used as the control. After treatment for 2 h, the media was replaced with fresh media. After 12 h, the cells were used for microscopy analysis.
# The microscopy samples were prepared by washing the slips with phosphate buffered saline (PBS) three times. The cells were fixed with 4% paraformaldehyde for 40 min followed by another three washes with PBS. The cells were permeabilized with 0.1% Triton X-100 (Sigma) in PBS for 10 min and blocked with 5% normal goat serum in PBS for 1 h at 37° C. […] The mounted cells were analysed using a Carl Zeiss LSM 710 confocal microscope.
smiles,measurement,setting,value
"CC(C)=CCC[C@@H](C)[C@H]1CC[C@@]2(C)C3=C(CC[C@]12C)[C@@]1(C)CC[C@H](O)C(C)(C)[C@@H]1CC3 [lanosterol, 3β-Hydroxy-8,24-lanostadiene; 8,24-Lanostadien-3β-ol]",cataract grade after treatment,"[1]; isolated rabbit lens incubated in 25 mM lanosterol solution for 6 days, n=13",1 and 0
same,cataract grade before treatment,"[1]; isolated rabbit lens, baseline of each lanosterol-treated sample, n=13",2 and 1 and 3
same,cataract severity / lens clarity,"[1]; isolated rabbit lenses, 25 mM lanosterol, 6 days, P<0.003, Wilcoxon Test",strong trend of reduction in cataract severity; also recorded: reduced cataract severity and increased clarity
same,effect on αA-crystallin (Y118D) aggregates in live cells,[2],could effectively diminish crystallin aggregates
same,intracellular aggregation / aggresome formation of crystallin proteins,"[3]; 0-40 mM sterols in 1% DMSO for 2 h, then 12 h, concentration-dependent, n=3, lanosterol P<1×10^−4, cholesterol P>0.1",significantly inhibited aggresome formation; also recorded: significantly reduced the intracellular aggregation
same,crystallin aggregation in cells co-expressing an LSS mutant and a mutant crystallin (rescue by sterol),"[3]; 40 mM sterols in culture medium for 2 h, then fresh medium 24 h",successfully reduced crystallin aggregation
